Legend:
rat femur fracture model = assay: Rat femur fracture model (fracture healing); assay type: in vivo
Description: Certain embodiments of the methods disclosed herein also include the use of the microprojection arrays as described herein in their various embodiments to accelerate fracture healing in a patient who has suffered one or more fractures and for which the fractures are not completely healed. Healing of bone fractures (eg long bone fractures) involves endochondral and intramembranous bone formation, which together form a callus that achieves union, stabilization, and gradual recovery of bone strength. […] Sixteen rats from each group were necropsied after 4 and 6 weeks of healing, with 12 fractured femurs per group used for micro-CT and biomechanical testing and the other 4 femurs used for micro-CT and histology.

[1] = tested on: ovariectomy-induced osteopenic rats and monkeys; conditions: ovariectomy-induced osteopenic rats and monkeys (Doyle 2013a; Doyle 2013b; Hattersley 2013); cited from earlier work
treated subjects = conditions: subcutaneous administration; cited from earlier work
[2] = 25 ug/kg/d sc daily, week 4, P<0.05 vs VEH

Substance: [Glu^22,25, Leu^23,28,31, Aib^29, Lys^26,30]hPTHrP(1-34)NH2 [abaloparatide]
- callus stiffness, higher vs VEH (three-point bending) (rat femur fracture model; 5 ug/kg/d sc daily, week 4, P<0.05 vs VEH): 60%
- callus stiffness, higher vs VEH (three-point bending) (rat femur fracture model; 5 ug/kg/d sc daily, week 6, P<0.05 vs VEH): 112%
- callus peak load, higher vs VEH (rat femur fracture model; [2]): 77%
- callus stiffness, higher vs VEH (three-point bending) (rat femur fracture model; [2]): 96%
- callus area (histomorphometry) vs VEH (rat femur fracture model; 5 and 25 ug/kg/d, week 4): significantly greater callus area
- micro-CT of fracture calluses vs VEH (rat femur fracture model; 5 and 25 ug/kg/d, weeks 4 and 6): significantly greater callus bone volume, bone volume fraction, and BMC
- histologic scoring of cortical bridging across the fracture gap vs VEH (rat femur fracture model; 5 or 25 ug/kg/d, week 4): significantly greater bridging
- callus peak load vs VEH (rat femur fracture model; both abaloparatide groups (5 and 25 ug/kg/d), week 6): numerically higher
- bone loss [1]: complete reversal of bone loss
- bone mineral density (BMD) and/or trabecular bone score (TBS) at the lumbar spine, total hip, and femoral neck (treated subjects): improve
